# Tested on: broomweed (Sida acuta, SIDAC)
# Test: Field trial, post-emergence foliar application, weed control rating 0-100%
# Format: in vivo
# Conditions: for Aminocyclopyrachlor Mean % weed control: 150 g ae/ha alone; for Picloram-Potassium Mean % weed control: 180 g ae/ha alone
# Source text: The (a) aminocyclopyrachloror an agriculturally acceptable salt or ester thereof is mixed with or applied in combination with (b) picloram or an agriculturally acceptable salt or ester thereof in an amount sufficient to induce a synergistic herbicidal effect. […] As described in the Herbicide Handbook of the Weed Science Society of America, Ninth Edition, 2007, p. 429, “‘synergism’ [is] an interaction of two or more factors such that the effect when combined is greater than the predicted effect based on the response to each factor applied separately.” Synergistic in the herbicide context can mean that the use of (a) and (b) as defined above results in an increased weed control effect compared to the weed control effects that are possible with the use of (a) or (b) alone. In some embodiments, the damage or injury to the undesired vegetation caused by the compositions and methods disclosed herein is evaluated using a scale from 0% to 100%, when compared with the untreated control vegetation, wherein 0% indicates no damage to the undesired vegetation and 100% indicates complete destruction of the undesired vegetation. […] 22 (1967)
# Field trials were conducted with applications made to established grassland with naturally occurring weed populations. The target plants were treated with postemergence foliar applications when they were at the beginning of the flowering stage and 30 centimeters (11.8 inches) tall. All treatments were applied using a randomized complete block trial design, with four replications per treatment.
# Treatments consisted of aminocyclopyrachlor in acid form and picloram-potassium, each in water and applied alone or in combination. Spray solutions were prepared using an appropriate amount of dilution to form a 2.0-liter (L) aqueous spray solution with active ingredients in single and two-way combinations. Formulated compounds were applied to the plant material with a backpack sprayer equipped with 8003 nozzles calibrated to deliver 400 liters per hectare (L/ha) at a spray height of 18-20 in (45-51 cm) above average plant canopy.
# The treated plant was broomweed (Sida acuta, SIDAC). The treated plots and control plots were rated blind at various intervals after application. Ratings were based on a scale of 0-100%, as discussed above, wherein 0% indicates no damage to the undesired vegetation and 100% indicates complete destruction of the undesired vegetation
# Colby's equation was used to determine the herbicidal effects expected from the mixtures, as described above. The results were measured at 59 days, 75 days, and 88 days after the first application of the compositions. […] The herbicide tank mix combinations tested, application rates and ratios employed, plant species tested, and results are given below.
Structure (SMILES),Aminocyclopyrachlor Mean % weed control (59 days after application) [%],Aminocyclopyrachlor Mean % weed control (75 days after application) [%],Aminocyclopyrachlor Mean % weed control (88 days after application) [%],Picloram-Potassium Mean % weed control (59 days after application) [%],Picloram-Potassium Mean % weed control (75 days after application) [%],Picloram-Potassium Mean % weed control (88 days after application) [%]
"Nc1nc(C2CC2)nc(C(=O)O)c1Cl [Aminocyclopyrachlor, 6-amino-5-chloro-2-cyclopropylpyrimidine-4-carboxylic acid]",42.5,36.3,41.3,–,–,–
"Nc1c(Cl)c(Cl)nc(C(=O)O)c1Cl [Picloram-Potassium, 4-amino-3,5,6-trichloro-2-pyridinecarboxylic acid]",–,–,–,6.3,3.8,5.5
